Values quoted from earlier work as cited in patent US9707174B2, “Aqueous ophthalmic solution of olopatadine” (Gavis Pharmaceuticals, priority 2015, dated 2017).

Conditions: pH about 7.0, room temperature, olopatadine by itself

CN(C)CC/C=C1/c2ccccc2COc2ccc(CC(=O)O)cc21 [olopatadine]
soluble in water up to a concentration: about 0.18 w/v %
